Test results reported in publication PMC6934184, “Selective DNA-PKcs inhibition extends the therapeutic index of localized radiotherapy and chemotherapy” (The Journal of Clinical Investigation, 2019).

Molecular target: T1, MAPK1 (ERK2) (Homo sapiens, UniProt P28482)
T1 construct: purchased Thermo Fisher Scientific (Life Technologies) SelectScreen
Test: SelectScreen Z'LYTE
Format: biochemical
In short: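 Percent values come from Thermo SelectScreen profiling of NU5455, combining activity and binding assays. CSF1R was run in Z'LYTE format at Km app ATP, and CAMK1 in Adapta format with ATP listed at 10.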

T1 sequence (P28482 whole entry): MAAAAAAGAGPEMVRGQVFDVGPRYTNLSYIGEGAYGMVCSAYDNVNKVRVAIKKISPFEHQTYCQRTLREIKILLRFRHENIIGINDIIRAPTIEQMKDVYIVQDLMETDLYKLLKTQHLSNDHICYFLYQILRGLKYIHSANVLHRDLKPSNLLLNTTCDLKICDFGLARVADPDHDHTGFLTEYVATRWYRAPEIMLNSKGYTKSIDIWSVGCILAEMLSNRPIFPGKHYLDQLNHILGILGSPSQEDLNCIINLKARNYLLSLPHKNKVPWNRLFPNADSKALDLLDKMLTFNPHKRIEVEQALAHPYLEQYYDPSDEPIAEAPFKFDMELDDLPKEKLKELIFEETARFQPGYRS

Compound: CN(C(=O)CN1CCOCC1)c1ccc2sc3c(-c4cccc5c(=O)cc(N6CC7CCC(C6)O7)oc45)cccc3c2c1 [NU5455]
- inhibition at 1 µM: 10.1%
